Measurements reported in patent US8952024B2, “Herbicidal pyrimidone derivatives” (E I du Pont de Nemours and Company, priority 2009, dated 2015).
Read-outs that look alike come from different tables or passages of the source.

Experiments:
Type in all cases: in vivo
[1] = tested on: morningglory (Ipomoea spp.); experiment: Test A pre-/postemergence plant response; conditions: Ipomoea, 240 h, read-out: Plant response rating, Morningglory; for pest or weed control at 125 g/ha: 125 g ai/ha; for pest or weed control at 500 g/ha: 500 g ai/ha, approx. ten days
Outline: (§1)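 Injury was scored visually after roughly ten days against untreated controls, 0 = no effect, 100 = complete control. Test chemicals in a surfactant-containing non-phytotoxic solvent were sprayed either onto soil preemergence or onto one- to two-leaf, 2–10 cm plants postemergence.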

[2] = tested on: pigweed (Amaranthus retroflexus); experiment: Test A pre-/postemergence plant response; conditions: Amaranthus retroflexus, 240 h, read-out: Plant response rating, Pigweed; for pest or weed control at 125 g/ha: 125 g ai/ha; for pest or weed control at 500 g/ha: 500 g ai/ha, approx. ten days
Outline: as §1

[3] = tested on: giant foxtail (Setaria faberii); experiment: Test B pre-/postemergence plant response
Outline: (§2)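 Pre-em in loam/sand; post-em at 1–4 leaf (2–18 cm) in peat mix. Solvent + surfactant formulation. Greenhouse 13–15 d; visual % control vs untreated, 0–100.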

[4] = tested on: goosegrass (Eleusine indica); experiment: Test B pre-/postemergence plant response
Outline: as §2

[5] = tested on: johnsongrass (Sorghum halepense); experiment: Test B pre-/postemergence plant response
Outline: as §2

[6] = tested on: morningglory (Ipomoea coccinea); experiment: Test B pre-/postemergence plant response
Outline: as §2

[7] = tested on: wheat (Triticum aestivum); experiment: Test B pre-/postemergence plant response
Outline: as §2

[8] = tested on: woolly cupgrass (Eriochloa villosa); experiment: Test B pre-/postemergence plant response
Outline: as §2

[9] = tested on: barnyardgrass (Echinochloa crus-galli); experiment: Test B flooded paddy test
Outline: (§3)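 Rice, umbrella sedge, ducksalad and barnyardgrass were grown to the 2-leaf stage, flooded to 3 cm, and compound was applied directly to the paddy water, with that depth kept throughout. After 13 to 15 days in the greenhouse, plants were visually rated against controls on a 0 (no effect) to 100 (complete control) scale.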

[10] = tested on: ducksalad (Heteranthera limosa); experiment: Test B flooded paddy test
Outline: as §3

[11] = tested on: rice (Oryza sativa); experiment: Test B flooded paddy test
Outline: as §3

[12] = tested on: umbrella sedge (Cyperus difformis); experiment: Test B flooded paddy test
Outline: as §3

[13] = post-emergence, Postemergence, 0 to 100 scale where 0 is no effect and 100 is complete control
[14] = post-emergence, Postemergence, 0 to 100 scale, 0 = no effect, 100 = complete control
[15] = pre-emergence, Preemergence, 0 to 100 scale, 0 = no effect, 100 = complete control
[16] = pre-emergence, Preemergence, visual injury, 0 to 100 scale (0 no effect, 100 complete control)
[17] = 62 g ai/ha, postemergence, 0 is no effect, 100 is complete control, 13 to 15 days
[18] = Flood, 31 g ai/ha, scale 0 to 100 (0 no effect, 100 complete control)

`COCCn1c(-c2ccsc2)ncc(C(=O)C2=C(O)CCCC2=O)c1=O` [Compound 97, 5-[(2-hydroxy-6-oxo-1-cyclohexen-1-yl)carbonyl]-3-(2-methoxyethyl)-2-(3-thienyl)-4(3H)-pyrimidinone] gave a pest or weed control at 125 g/ha [1, 13] of 100%, a pest or weed control at 500 g/ha [1, 14] of 100% and a pest or weed control at 125 g/ha [1, 15] of 70%. For the same molecule, the pest or weed control at 500 g/ha [1, 16] was 80%, the pest or weed control at 125 g/ha [2, 13] was 100% and the pest or weed control at 500 g/ha [2, 14] was 100%. For the same molecule, the pest or weed control at 125 g/ha [2, 15] was 100%, the pest or weed control at 500 g/ha [2, 16] was 100% and the “Foxtail, Giant plant response rating (0 to 100 scale)” value [3, 17] was 75. For the same molecule, the pest or weed control at 31 g/ha ([3]; Setaria faberi, post-emergence, 31 g ai/ha, postemergence, scale 0 to 100, 0 is no effect, 100 is complete control, read-out: Plant response rating, Foxtail, Giant) was 60%, the pest or weed control at 250 g/ha ([3]; Setaria faberi, post-emergence, Postemergence, 250 g ai/ha, scale 0 to 100 (0 no effect, 100 complete control), read-out: Plant response rating, Foxtail, Giant) was 90% and the “Goosegrass plant response rating (0 to 100 scale)” value [4, 17] was 70. The pest or weed control at 31 g/ha ([4]; Eleusine indica, post-emergence, 31 g ai/ha, postemergence, scale 0 to 100, 0 is no effect, 100 is complete control, read-out: Plant response rating, Goosegrass) was 60%, the pest or weed control at 250 g/ha ([4]; Eleusine indica, post-emergence, Postemergence, 250 g ai/ha, scale 0 to 100 (0 no effect, 100 complete control), read-out: Plant response rating, Goosegrass) was 98% and the “Johnsongrass plant response rating (0 to 100 scale)” value [5, 17] was 55. For the same molecule, the pest or weed control at 31 g/ha ([5]; Sorghum halepense, post-emergence, 31 g ai/ha, postemergence, scale 0 to 100, 0 is no effect, 100 is complete control, read-out: Plant response rating, Johnsongrass) was 15%, the pest or weed control at 250 g/ha ([5]; Sorghum halepense, post-emergence, Postemergence, 250 g ai/ha, scale 0 to 100 (0 no effect, 100 complete control), read-out: Plant response rating, Johnsongrass) was 85% and the “Morningglory plant response rating (0 to 100 scale)” value [6, 17] was 100. For the same molecule, the pest or weed control at 31 g/ha ([6]; Ipomoea, post-emergence, 31 g ai/ha, postemergence, scale 0 to 100, 0 is no effect, 100 is complete control, read-out: Plant response rating, Morningglory) was 100%, the pest or weed control at 250 g/ha ([6]; Ipomoea, post-emergence, Postemergence, 250 g ai/ha, scale 0 to 100 (0 no effect, 100 complete control), read-out: Plant response rating, Morningglory) was 100% and the “Wheat plant response rating (0 to 100 scale)” value [7, 17] was 0. For the same molecule, the plant injury at 31 g/ha ([7]; Triticum aestivum, post-emergence, 31 g ai/ha, postemergence, scale 0 to 100, 0 is no effect, 100 is complete control, read-out: Plant response rating, Wheat) was 0%, the plant injury at 250 g/ha ([7]; Triticum aestivum, post-emergence, Postemergence, 250 g ai/ha, scale 0 to 100 (0 no effect, 100 complete control), read-out: Plant response rating, Wheat) was 5% and the “Cupgrass, Woolly plant response rating (0 to 100 scale)” value [8, 17] was 60. The pest or weed control at 31 g/ha ([8]; Eriochloa villosa, post-emergence, 31 g ai/ha, postemergence, scale 0 to 100, 0 is no effect, 100 is complete control, read-out: Plant response rating, Cupgrass, Woolly) was 55%, the pest or weed control at 125 g/ha ([8]; Eriochloa villosa, post-emergence, Postemergence, 125 g ai/ha, visual rating after 13 to 15 days, scale 0 (no effect) to 100 (complete control)) was 70% and the pest or weed control at 250 g/ha ([8]; Eriochloa villosa, post-emergence, Postemergence, 250 g ai/ha, scale 0 to 100 (0 no effect, 100 complete control), read-out: Plant response rating, Cupgrass, Woolly) was 75%. It also gave a pest or weed control at 250 g/ha ([9]; Echinochloa crus-galli, 360 h, 250 g ai/ha, flooded paddy test, visual rating on 0 to 100 scale (0 no effect, 100 complete control) after 13 to 15 days, read-out: Plant response rating, Flood, Barnyardgrass) of 75%, a pest or weed control at 62 g/ha ([9]; Echinochloa crus-galli, 360 h, Flood (flooded paddy test), 62 g ai/ha, scale of 0 to 100 where 0 is no effect and 100 is complete control, 13 to 15 days, read-out: Plant response rating, Barnyardgrass) of 40% and a pest or weed control at 125 g/ha ([9]; Echinochloa crus-galli, 360 h, Flood (flooded paddy test), 125 g ai/ha, scale 0 to 100, 0 is no effect, 100 is complete control, 13 to 15 days, read-out: Plant response rating, Barnyardgrass) of 60%. For the same molecule, the “Barnyardgrass plant response rating” value [9, 18] was 30, the “Ducksalad plant response rating” value [10, 18] was 30 and the pest or weed control at 250 g/ha ([10]; Heteranthera limosa, 360 h, 250 g ai/ha, flooded paddy test, visual rating on 0 to 100 scale (0 no effect, 100 complete control) after 13 to 15 days, read-out: Plant response rating, Flood, Ducksalad) was 70%. The pest or weed control at 62 g/ha ([10]; Heteranthera limosa, 360 h, Flood (flooded paddy test), 62 g ai/ha, scale of 0 to 100 where 0 is no effect and 100 is complete control, 13 to 15 days, read-out: Plant response rating, Ducksalad) was 30%, the pest or weed control at 125 g/ha ([10]; Heteranthera limosa, 360 h, Flood (flooded paddy test), 125 g ai/ha, scale 0 to 100, 0 is no effect, 100 is complete control, 13 to 15 days, read-out: Plant response rating, Ducksalad) was 30% and the “Rice plant response rating” value [11, 18] was 0. It also gave a plant injury at 250 g/ha ([11]; Oryza sativa, 250 g ai/ha, flooded paddy test, visual rating on 0 to 100 scale (0 no effect, 100 complete control) after 13 to 15 days, read-out: Plant response rating, Flood, Rice) of 40%, a plant injury at 62 g/ha ([11]; Oryza sativa, Flood (flooded paddy test), 62 g ai/ha, scale of 0 to 100 where 0 is no effect and 100 is complete control, 13 to 15 days, read-out: Plant response rating, Rice) of 0% and a plant injury at 125 g/ha ([11]; Oryza sativa, Flood (flooded paddy test), 125 g ai/ha, scale 0 to 100, 0 is no effect, 100 is complete control, 13 to 15 days, read-out: Plant response rating, Rice) of 0%. The pest or weed control at 250 g/ha ([12]; Cyperus difformis, 360 h, 250 g ai/ha, flooded paddy test, visual rating on 0 to 100 scale (0 no effect, 100 complete control) after 13 to 15 days, read-out: Plant response rating, Flood, Sedge, Umbrella) was 80%, the pest or weed control at 62 g/ha ([12]; Cyperus difformis, 360 h, Flood (flooded paddy test), 62 g ai/ha, scale of 0 to 100 where 0 is no effect and 100 is complete control, 13 to 15 days, read-out: Plant response rating, Sedge, Umbrella) was 40% and the pest or weed control at 125 g/ha ([12]; Cyperus difformis, 360 h, Flood (flooded paddy test), 125 g ai/ha, scale 0 to 100, 0 is no effect, 100 is complete control, 13 to 15 days, read-out: Plant response rating, Sedge, Umbrella) was 70%. The “Sedge, Umbrella plant response rating” value [12, 18] was 30.
